Laboratory results published in patent US9072919B2, “Synergistic antioxidant cosmetic compositions containing at least one of baicalin and taxifolin, at least one of caffeine and nicotinamide, at least one of vitamin C and resveratrol and ferulic acid” (priority 2012, dated 2015).

Assays:
[1] = Oxygen radical absorbance capacity assay (ORAC); assay type: biochemical; conditions: tested both individually and in solution
Experimental: Azo-initiators are considered to produce the peroxyl radical by heating, which damages the fluorescent molecule, resulting in the loss of fluorescence. Antioxidants are considered to protect the fluorescent molecule from the oxidative degeneration. By quantifying the decay of fluorescence using a fluorometer, the degree of protection is determined comparing with a standard control antioxidant Trolox. […] Equipment that can automatically measure and calculate the capacity is commercially available, such as the VarioSkan flash microplate reader from Thermo Scientific. To test samples by using ORAC, compounds are dissolved into water-based NaH2PO4 buffer.

Solubility in water = assay type: physicochemical

| Structure (SMILES) | influence of hydrotrope on the capacity of antioxidant compounds [1] | solubility in water (Solubility in water) |
| --- | --- | --- |
| Cn1c(=O)c2c(ncn2C)n(C)c1=O [caffeine] | no influence |  |
| NC(=O)c1cccnc1 [nicotinamide] | no influence |  |
| O=C(O)[C@H]1O[C@@H](Oc2cc3oc(-c4ccccc4)cc(=O)c3c(O)c2O)[C@H](O)[C@@H](O)[C@@H]1O [baicalin] |  | very low |
